Assay in all cases: NCI anticancer screen, dose series, 48 h
Assay [1] has as its system UACC-62 melanoma.
For assay [2], the system named is SF-268 CNS.
Assay [3] has as its system UO-31 renal.
For assay [4], the system named is 786-0 renal.
Assay [5] deals with TK-10 renal.
Assay [6] deals with HCC-2998 colon.
Assay [7] concerns SF-295 CNS.
Assay [8] has as its system BT-549 breast.
In assay [9] the test system is ACHN renal.
Assay [10] has as its system HOP-92 NSCLC.
For assay [11], the system named is NCI-H23 lung.
Assay [12] concerns RXF 393 renal.
The subject of assay [13] is SW-620 colon.
For assay [14], the system named is HT29 colon.

Our source for the TGI values is PubChem BioAssay (NCI).

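Interpolation was linear, between the two tested concentrations surrounding the appropriate level; five concentrations were tested over 48 hours in 96-well plates. TGI: concentration producing complete growth inhibition.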

As for `COC(=O)c1cc(C(=O)OC)cc(-c2ccc3c(c2)-c2nc4c(c(-c5ccc(OC)cc5)c2CC3)CCc2ccc(-c3cc(C(=O)OC)cc(C(=O)OC)c3)cc2-4)c1`, the TGI in assay [1], in assay [2], in assay [3], in [4], in assay [5] and in [6] was greater than 100 µM each time. The TGI in [7], in assay [8], in assay [9], in [10] and in [11] was greater than 100 µM in each case.
Turning to `O=C1NN=C(c2c[nH]c3ccccc23)CC1NCc1ccccc1` (stereo not drawn), the TGI in assay [12], in assay [1], in [2], in [3], in [4] and in assay [5] was greater than 100 µM throughout. Also, the TGI in assay [13], in assay [7], in [8], in assay [14], in [9] and in assay [10] was greater than 100 µM each time. In assay [11], this compound gave a TGI greater than 100 µM.
In the case of `CC1OC(n2cc(F)c(=O)[nH]c2=O)C(O[Si](C)(C)C(C)(C)C)C1O[Si](C)(C)C(C)(C)C` (stereo not drawn), the TGI is 29.5 µM in assay [12]; 28.6 µM in [1]; 29.8 µM in [2]; 25.4 µM in [3]; 27.7 µM in assay [4]; 22.9 µM in assay [5]. The TGI came out at 28.6 µM in assay [13]; 28.2 µM in assay [6]; 27.1 µM in assay [7]; 26.1 µM in assay [8]; 23.3 µM in assay [14]; 26.9 µM in [9]. For the same compound, in [11], the TGI was 23 µM.
In the case of `CCN(CC)C(=S)SS(=O)(=O)c1ccc(C)cc1`, the TGI in [12] is 33.4 µM; in assay [1] it was greater than 100 µM; in assay [2], greater than 100 µM; in assay [3], 51.2 µM; in assay [4], 50.5 µM; in [5], greater than 100 µM. Moreover, the TGI is 45.2 µM in assay [13]; greater than 100 µM in assay [6]; greater than 100 µM in assay [7]; 68.2 µM in assay [8]; 30.2 µM in [14]; greater than 100 µM in assay [9]. For the same compound, the TGI in [11] was greater than 100 µM.
For `CC12CCC(C/C1=N\NC(N)=O)C2(C)C` (stereo not drawn), the TGI in assay [1], in [2], in [3], in assay [4], in assay [5] and in [13] was greater than 100 µM throughout. Moreover, the TGI in [7], in assay [8], in assay [14], in assay [9], in assay [10] and in [11] was greater than 100 µM in each case.
For `CC1=CCC[C@H]2[C@](C)(CC3=CC(=O)C4SCCSC4C3=O)[C@@H](C)CC[C@]12C` (stereo partly drawn), the TGI in assay [12] was found to be 44.8 µM; in assay [1] it was 39.9 µM; in [3], 40.1 µM; in assay [4] it was 35 µM; in assay [13] it was 65.6 µM; in assay [6], 55.8 µM. In addition, the TGI in assay [7] was 32.8 µM; in assay [8], 39.7 µM; in [9], 46.1 µM; in assay [10], 70.4 µM; in assay [11], 31.9 µM.
`O=C(NCCCNCCCCNCCCNC(=O)C(F)(F)F)C(F)(F)F`: the TGI in [12], in assay [1], in [2], in assay [3], in assay [4] and in assay [5] was greater than 100 µM throughout. In addition, the TGI in [13], in assay [6], in assay [7], in [8], in assay [14] and in assay [9] was greater than 100 µM throughout. Besides, the TGI in [11] is greater than 100 µM.
Consider `O=c1c(Cc2ccccc2)c(-c2ccccc2)[nH]n1C1=NCCN1`, for which the TGI in assay [12], in [1], in assay [2], in assay [3], in [4] and in assay [5] was greater than 100 µM throughout. In addition, the TGI in assay [13] was greater than 100 µM; in assay [7], greater than 100 µM; in [8], greater than 100 µM; in [14], 57 µM; in [9] it was greater than 100 µM; in [10], greater than 100 µM. This compound gave a TGI in [11] greater than 100 µM.
In the case of `CCCC[C@@H]1CCN2C[C@@H](O)[C@@H](O)[C@H]2[C@@H]1O`, the TGI in [1], in assay [2], in assay [3], in assay [4], in assay [5] and in [13] was greater than 100 µM in each case. In addition, the TGI in [6], in assay [7], in assay [8], in [14], in assay [9] and in [10] was greater than 100 µM each time. The TGI in assay [11] is greater than 100 µM.
For the compound `Cc1ccsc1C(=S)Nc1ccc(Cl)c(C(=O)OC(C(C)C)C(C)C)c1`, the TGI was greater than 100 µM in assay [1]; greater than 100 µM in assay [2]; greater than 100 µM in assay [3]; greater than 100 µM in assay [4]; greater than 100 µM in assay [5]; 98.8 µM in assay [13]. Further, the TGI in assay [6] is greater than 100 µM; in assay [7], greater than 100 µM; in assay [8], 61.4 µM; in [14], 71.6 µM; in assay [9] it was greater than 100 µM; in [10], 61.3 µM. The compound further gave a TGI in assay [11] greater than 100 µM.
`FC(F)=C(c1ccc(-c2ccc(Cl)cc2)cc1)C(F)(F)F`: the TGI turned out to be 40.9 µM in [12]; 38.6 µM in [1]; 56.3 µM in assay [2]; 31 µM in [3]; 37.8 µM in [4]; 29.4 µM in [5]. Further, the TGI is 40.3 µM in assay [13]; 56.7 µM in assay [7]; 39.3 µM in assay [8]; 67.4 µM in [14]; 31.1 µM in assay [9]; 33.4 µM in [10]. Also, in assay [11], the TGI turned out to be 35.4 µM.
